“And” between values parts separate entries of the source, which are not always exact repeats. Equal values may be shown once.

The test system of data set [1] is human platelets. Nature of the data set: Loading of platelets with trehalose (anthrone quantification). In kind it is cell-based. The note with it: 37° C., from 0 to 2 hours. On the procedure: Washing of Platelets. Platelet concentrations were obtained from the Sacramento blood center or from volunteers in our laboratory. Platelet rich plasma was centrifuged for 8 minutes at 320×g to remove erythrocytes and leukocytes. The supernatant was pelleted and washed two times (480×g for 22 minutes, 480×g for 15 minutes) in buffer A (100 MM NaCl, 10 MM KCl, 10 mM EGTA, 10 mM imidazole, pH 6.8). Platelet counts were obtained on a Coulter counter T890 (Coulter, Inc., Miami, Fla.).
Loading of Platelets with Trehalose. Washed platelets in a concentration of 1-2 10^9 platelets/ml were incubated at various temperatures in the presence of 1-20 mg/ml trehalose. […] The amount of trehalose in the platelets was quantified using the anthrone reaction (Umbreit et al., Mamometric and Biochemical Techniques, 5th Edition, 1972). […] Then the samples were cooled on ice and the absorbance was measured at 620 nm on a Perkin Elmer spectrophotometer. The amount of platelet associated trehalose was determined using a standard curve of trehalose.
Quantification of Trehalose and LYCH Concentration. Uptake was calculated for each sample as micrograms of trehalose or LYCH per platelet. The internal trehalose concentration was calculated assuming a platelet radius of 1.2 μm and by assuming that 50% of the platelet volume is taken up by the cytosol (rest is membranes). […]

Data set [2] concerns human platelets. Nature of the data set: Stability of platelets during trehalose incubation (microscopy, flow cytometric analysis). In kind it is cell-based. The method, then: The uptake of trehalose is linear in the range from 0 to 30 mM external trehalose. The highest internal trehalose concentration is obtained with 50 mM external trehalose. At higher concentrations than 50 mM the internal trehalose concentration decreases again. Even when the loading buffer at these high trehalose concentrations is corrected for isotonicity by adjusting the salt concentration, the loading efficiency remains low. Platelets become swollen after 4 hours incubation in 75 mM trehalose.
The stability of the platelets during a 4 hours incubation period was studied using microscopy and flow cytometric analysis. […] No signs of microvesicle formation could be observed after 4 hours incubation, as can be judged by the stable relative proportion of microvesicle gated cells (less than 3%). The formation of microvesicles is usually considered as the first sign of platelet activation (Owners et al., Trans. Med. Rev., 8, 27-44, 1994). Characteristic antigens of platelet activation include: glycoprotein 53 (gp53, a lysosomal membrane marker), PECAM-1 (platelet endothelial cell adhesion molecule-1, an alpha granule constituent), and P-selection (an alpha granule membrane protein).
(A flow cytometer gives signals particle by particle.)

Data set [3] can be described thus: State diagram (glass transition temperature vs water content) by differential scanning calorimeter. In kind it is physicochemical. The note with it: FIG. 40, assuming sample temperature of −50° C. From the text: In another embodiment of the invention, it has been discovered that protein alters the physical properties of a preservative solution. More specifically, it has been discovered that the protein albumin alters the physical properties of the oligosaccharide trehalose solution as broadly illustrated in FIG. 40, which are graphs representing state diagrams (e.g., glass transition temperature vs. water content) for trehalose:water mixtures and for trehalose-albumin(1/1, wt/wt):water mixtures. A state diagram is a measure of the glass transition temperatures (Tg) for the respective mixtures (i.e., the various preservative:water mixtures and the various preservative-protein:water mixtures). The state diagrams broadly illustrated in FIG. 40 were obtained by respectively freeze-drying trehalose alone and freeze-drying a 1:1 (wt:wt) trehalose:albumin solution, and then adding back known amounts of water to the respective freeze-dried solutions. The glass transition temperatures for the trehalose:water solution and for the trehalose/albumin:solution were measured by a differential scanning calorimeter with conventional methods.

In a further data set the test system is mesenchymal stem cells. In words: Growth curves of mesenchymal stem cells with 90 mM trehalose. In kind it is cell-based, human. On the procedure: Growth Curves. MSCs were plated into 12-welled plates at approximately the same seeding density used for T-185 flasks in standard Osiris protocols (5900 cells/cm^2 with fluid volume of 0.189 mL/cm^2). Three wells for each condition at each time point were trypsinized and counted. Data for cells grown in the presence of trehalose were lost for the first two time points. FIG. 13 is a graph illustrating growth curves for the mesenchymal stem cells in the presence or absence of 90 mM trehalose with the open triangle data representing cells grown in standard medium for 24 hours, after which 90 mM trehalose was added.

In another data set the test system is erythrocyte membranes. Nature of the data set: FTIR membrane phase transitions of erythrocytes.
[4] abbreviates: erythrocytes incubated 37° C. one hour with MβCD.

As to `OC[C@H]1O[C@H](O[C@H]2O[C@H](CO)[C@@H](O)[C@H](O)[C@H]2O)[C@H](O)[C@@H](O)[C@@H]1O` [trehalose], the trehalose uptake in the data set on human platelets [1] was 2.8×10^−11 mol/m^2s. In the data set with human platelets [2] (4 hours at 37° C., 25 mM external trehalose), the morphological changes result was “No morphological changes”. In the data set on human platelets [2] (4 hours incubation at 37° C. in 75 mM trehalose), the platelet morphology result is recorded as “swollen”. For the same compound, the “relative proportion of microvesicle gated cells” value in the data set on human platelets [2] (4 hours incubation, flow cytometry) was “less than 3%”. Further, the “water content at which sample enters the glassy state” value in data set [3] is “below 0.15 gram H2O/gram dry wt”. The “effect on growth of the cells” value with mesenchymal stem cells (after the third day) is given as “cell count started to drop significantly”; with mesenchymal stem cells (up to the third day), “did not interfere with growth of the cells”.

For methyl-β-cyclodextrin [MβCD], in the data set with erythrocyte membranes (setting [4]), the “High Transition, Cooperativity” value came to 0.091 ± 0.020 cm^−1/° C; the “High Transition, Transition Temperature” value amounted to 35.4 ± 1.5 °C; the “Low Transition, Cooperativity” value came out at 0.051 ± 0.004 cm^−1/° C; the “Low Transition, Transition Temperature” value was determined as 15.3 ± 0.8 °C. Moreover, in the data set with erythrocyte membranes (setting [4]), the “Middle Transition, Cooperativity” value came out at 0.095 ± 0.015 cm^−1/° C; the “Middle Transition, Transition Temperature” value is 25 °C and 26.0 ± 0.8 °C. For the same compound, the “wavenumber excursion of lipid CH2 band” value with erythrocyte membranes (from −5 to 45° C., after cholesterol removal (control 0.7)) came to 2.9 cm⁻¹.

Turning to `CC(C)c1c(C(=O)Nc2ccccc2)c(-c2ccccc2)c(-c2ccc(F)cc2)n1CC[C@@H](O)C[C@@H](O)CC(=O)O` [LIPITOR], the total wavenumber excursion in the data set with erythrocyte membranes (from −5 to 45° C., erythrocytes of a donor who used LIPITOR (other donors 0.8)) was around 1.5 cm⁻¹.

These data come from US20060223050A1, “Therapeutic platelets and methods” (The Regents of the University of California Office of …, priority 2003, published 2006).
